Reference: US11124523B2, “2,6-dioxaspiro [4,5] decane derivatives and preparation method therefor and pharmaceutical applications thereof” (SHANDONG LUYE PHARMACEUTICAL CO., LTD., priority 2017, dated 2021)
Structures can show the parent of a compound that is named as a salt. Where two headings read alike, the source gives them in different places.

Experiments:
[1] = Metabolic stability in liver microsomes; format: in vitro ADME; conditions: pH 7.4; human liver microsomes 0.5 mg protein/mL; 45 mg microsome protein/g liver, 20 g liver/kg; read-out: Intrinsic Clearance CLint(liver) in Human Liver
Procedure: Test 3: Metabolic Stability in Liver Microsomes
3.1 Experimental Purpose: To test the metabolic stability of the compounds of the present disclosure in human liver microsomes
a. All samples as well as testosterone, diclofenac and propafenone acting as reference substances were dissolved in DMSO to a storage concentration of 10 mM.
b. Intermediate Solution: 5 μL of the substance to be tested or the reference substance was diluted with 45 μL of DMSO (with 450 μL of 1:1 methanol/water).
c. Working Solution: the intermediate solution was diluted with 450 μL of 100 mM potassium phosphate buffer solution (pH 7.4).
Assay Buffer: 100 mM potassium phosphate buffer (pH 7.4) • 10 mM MgCl2
Liver Microsome Solution (final concentration: 0.5 mg protein/mL):
Human liver microsomes, obtained from BD, Cat No. 452117, Lot No. 38291
b. 10 μL of the working solution containing the substance to be tested or the reference substance was added to each of plates (T0, T5, T10, T20, T30, T60, NCF60).
c. The liver microsome solution was dispensed into a 96-well plate in an amount of 680 μL/well, then 80 was added, and then T was added to each of the plates. The above incubation plate was placed at 37° C. and pre-incubated for approximately 10 minutes.
d. 10 μL of 100 mM potassium phosphate buffer was added to each well in the NCF60 plate.
e. After the pre-incubation was finished, the NADPH regeneration system working solution was dispensed into the 96-well plate in an amount of 90 μL/well, and then added to each of the plates in an amount of 10 μL/well to start the reaction.
f. The plates were incubated for an appropriate time (e.g., 5, 10, 20, 30, or 60 minutes).
g. The stop solution (refrigerated at 4° C., containing 100 ng/mL Tolbutamide and 100 ng/mL Labetalol) was added to each sample well in an amount of 300 μL/well.
h. The sample plates were shaken well for about 10 minutes and centrifuged at 4,000 rpm for 20 minutes at 4° C. During the centrifugation, 300 μL of HPLC water was added to each well, and 100 μL of the supernatant was taken for LC-MS/MS analysis.
T1/2 and Clint(mic) were calculated by the following formula: […]
Each gram of liver contained 45 mg of microsome protein, and the liver weight was 20 g/kg in a human.
Ct was the concentration at time t, t was the incubation time, C0 was the concentration at time 0, Ke was an elimination rate constant, Clint(mic) was the intrinsic clearance in liver microsomes, and Clint(liver) was the intrinsic clearance in liver. CLint(mic)=0.693/half-life/mg of microsome protein per mL(concentration of microsomes during incubation) CLint(liver)=CLint(mic)×mg of microsome protein/g of liver weight×a ratio of liver weight to body weight 3.4 Test Results

[2] = target: CYP2C19 (Homo sapiens (Human), UniProt P33261); assay: Inhibition of cytochrome P450 isoenzymes, CYP2C19; format: in vitro ADME; conditions: >50 μM: inhibitory effect less than 50% at 50 μM; read-out: CYP 2C19 IC50
Procedure: (§1) 4.1 Experimental Purpose: To test the inhibitory effects of the compounds of the present disclosure on different isoforms of human cytochrome P450 isoenzymes
(§2) 1) The activities of CYP1A2, 2C9, 2C19, 2D6, and 3A4 were measured using a standard substrate method. In each reaction, the enzyme activities were measured in the presence and absence of the substance to be tested, wherein a single sample was measured at a total of eight test concentrations. A 5-in-1 mixed inhibitor was used.
(§3) 2) An incubation matrix comprising microsomes, a substrate, and an inhibitor or the compound to be tested was pre-incubated at 37° C. for 5 minutes, and then NADPH was added to start the reaction.
(§4) 3) After the incubation, acetonitrile with an internal standard was added to stop the reaction.
(§5) 4) Metabolites generated by the substrates were measured by using the LC-MS/MS method, and the peak area ratio of each metabolite to the internal standard was evaluated and the inhibition rate and IC50 were calculated.

[3] = target: CYP3A4 (Homo sapiens (Human), UniProt P08684); assay: Inhibition of cytochrome P450 isoenzymes, CYP3A4; format: in vitro ADME; conditions: >50 μM: inhibitory effect less than 50% at 50 μM; read-out: CYP 3A4 IC50
Procedure: as §1, §2, §3, §4, §5

[4] = target: human μ-subtype opioid receptor (hMOR) (Homo sapiens (Human), UniProt P35372); assay: MOR β-arrestin-2 agonist activity test; format: cell-based; conditions: for Emax: maximum effect of enkephalin DAMGO was 100%, about 0% = no actual agonist activity
Procedure: Test 2: β-Arrestin-2 Agonist Activity Test
2.1 Experimental Purpose: To test the β-arrestin-2 agonist activity of the compounds of the present disclosure on the human μ-subtype opioid receptor (hMOR).
a. All samples were dissolved in DMSO to a storage concentration of 10 mM.
b. A series of diluted samples were formulated on a 384-well LDV plate. A total of 11 concentration points were obtained by 3.162-fold gradient dilution.
c. The series of diluted samples were transferred to an experimental plate by using an Echo machine, wherein 60 nL of the compound was transferred corresponding to each well.
d. 60 nL of 3.33 mM DAMGO (as HPE) and 60 nL of DMSO (as ZPE) were transferred to the corresponding positions on the experimental plate by using the Echo machine.
The experiment was performed using PathHunter Detection Kit from DiscoveRX Cooperation (DiscoveRX #93-0213C3)
a. Assay buffer and PathHunter detection reagent required for the experiment were formulated.
Assay Buffer: 1×DPBS buffer
PathHunter Detection Reagent: The kit was provided therein with three constituents.
c. The experimental plate was centrifuged at 300 rpm for 30 s and incubated at room temperature for 2 hours.
d. 6 μL of the PathHunter detection reagent was added to each well of the experimental plate.
e. The experimental plate was centrifuged at 300 rpm for 30 seconds, then left at room temperature for 60 minutes, and then read on the Envision.

[5] = target: CYP2C9 (Homo sapiens (Human), UniProt P11712); assay: Inhibition of cytochrome P450 isoenzymes, CYP2C9; format: in vitro ADME; conditions: >50 μM: inhibitory effect less than 50% at 50 μM; read-out: CYP 2C9 IC50
Procedure: as §1, §2, §3, §4, §5

[6] = target: CYP2D6 (Homo sapiens (Human), UniProt P10635); assay: Inhibition of cytochrome P450 isoenzymes, CYP2D6; format: in vitro ADME
Procedure: as §1, §2, §3, §4, §5

[7] = >30000 nM = greater than the highest detection concentration, read-out: MOR β-arrestin-2 EC50

Chain of CYP2C9 (P11712 whole entry): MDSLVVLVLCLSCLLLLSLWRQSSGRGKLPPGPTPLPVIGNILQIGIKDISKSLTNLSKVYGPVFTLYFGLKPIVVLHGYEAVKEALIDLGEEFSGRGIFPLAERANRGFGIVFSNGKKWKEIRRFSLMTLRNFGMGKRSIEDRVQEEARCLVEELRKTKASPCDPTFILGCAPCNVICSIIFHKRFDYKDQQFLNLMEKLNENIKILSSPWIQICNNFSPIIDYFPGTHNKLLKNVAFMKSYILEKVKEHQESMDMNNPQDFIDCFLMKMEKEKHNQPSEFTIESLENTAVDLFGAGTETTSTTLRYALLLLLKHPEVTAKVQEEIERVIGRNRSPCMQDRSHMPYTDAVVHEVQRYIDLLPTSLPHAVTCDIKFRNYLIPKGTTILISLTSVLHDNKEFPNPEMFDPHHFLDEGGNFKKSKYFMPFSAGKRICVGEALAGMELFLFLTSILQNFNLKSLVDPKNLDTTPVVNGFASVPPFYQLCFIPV
Chain of CYP2C19 (P33261 whole entry, canonical isoform): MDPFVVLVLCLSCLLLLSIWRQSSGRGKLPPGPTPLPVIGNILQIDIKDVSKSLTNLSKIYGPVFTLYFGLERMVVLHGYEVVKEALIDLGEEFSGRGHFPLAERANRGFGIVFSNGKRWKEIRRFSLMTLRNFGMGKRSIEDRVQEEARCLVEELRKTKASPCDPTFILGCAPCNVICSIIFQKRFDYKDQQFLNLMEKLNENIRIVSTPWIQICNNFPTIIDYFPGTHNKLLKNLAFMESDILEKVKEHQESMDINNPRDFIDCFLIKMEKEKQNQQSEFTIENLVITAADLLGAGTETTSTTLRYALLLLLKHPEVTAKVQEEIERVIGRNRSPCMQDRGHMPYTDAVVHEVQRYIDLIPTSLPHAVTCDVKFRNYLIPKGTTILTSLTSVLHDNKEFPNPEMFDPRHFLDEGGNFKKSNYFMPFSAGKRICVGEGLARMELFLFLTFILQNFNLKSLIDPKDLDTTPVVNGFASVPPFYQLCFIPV
Chain of CYP3A4 (P08684 whole entry): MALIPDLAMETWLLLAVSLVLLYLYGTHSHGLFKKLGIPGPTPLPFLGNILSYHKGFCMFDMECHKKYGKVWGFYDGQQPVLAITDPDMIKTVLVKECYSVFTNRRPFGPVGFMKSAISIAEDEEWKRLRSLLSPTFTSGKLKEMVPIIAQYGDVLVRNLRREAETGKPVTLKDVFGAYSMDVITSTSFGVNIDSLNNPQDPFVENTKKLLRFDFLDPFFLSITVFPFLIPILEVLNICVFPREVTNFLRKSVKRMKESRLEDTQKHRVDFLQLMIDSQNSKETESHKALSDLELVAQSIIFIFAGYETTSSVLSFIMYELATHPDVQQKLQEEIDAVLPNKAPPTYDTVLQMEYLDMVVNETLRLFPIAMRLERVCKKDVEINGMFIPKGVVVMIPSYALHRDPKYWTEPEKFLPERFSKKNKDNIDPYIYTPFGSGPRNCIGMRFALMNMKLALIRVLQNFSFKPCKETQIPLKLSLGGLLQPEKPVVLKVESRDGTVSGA
Chain of CYP2D6 (P10635 whole entry): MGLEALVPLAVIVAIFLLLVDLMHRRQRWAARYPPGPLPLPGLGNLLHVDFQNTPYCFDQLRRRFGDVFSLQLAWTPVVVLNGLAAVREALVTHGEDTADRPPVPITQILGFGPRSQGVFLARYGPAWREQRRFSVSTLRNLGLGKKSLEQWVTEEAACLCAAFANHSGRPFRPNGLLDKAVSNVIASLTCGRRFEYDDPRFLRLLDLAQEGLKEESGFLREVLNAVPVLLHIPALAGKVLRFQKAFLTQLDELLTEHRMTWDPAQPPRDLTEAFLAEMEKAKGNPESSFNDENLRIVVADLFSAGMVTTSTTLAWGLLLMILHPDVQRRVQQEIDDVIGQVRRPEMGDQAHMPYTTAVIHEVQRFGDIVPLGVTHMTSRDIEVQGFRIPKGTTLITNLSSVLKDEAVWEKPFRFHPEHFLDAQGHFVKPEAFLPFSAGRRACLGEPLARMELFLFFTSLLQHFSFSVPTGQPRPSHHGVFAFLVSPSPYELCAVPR

In the case of c1ccc([C@]2(CCNCc3scc4c3CCC4)CCO[C@]3(CCOC3)C2)nc1 [(+)-2], the CLint scaled [1] is reported as 49 mL/min/kg, the IC50 [2] is reported as > 50 µM and the IC50 [3] is reported as > 50 µM. The EC50 [4, 7] was > 30 µM, the Emax [4] was ~0% and the IC50 [5] was > 50 µM. It also gave an IC50 ([6]; read-out: CYP 2D6 IC50) of 46.4 µM.
In the case of Fc1ccc([C@]2(CCNCc3cccc(Cl)c3)CCO[C@]3(CCOC3)C2)nc1 [(+)-16], the CLint scaled [1] is reported as 29.2 mL/min/kg, the IC50 [2] is reported as 33.7 µM and the IC50 [3] is reported as 40.6 µM. For the same molecule, the EC50 [4, 7] was > 30 µM, the Emax [4] was ~0% and the IC50 [5] was > 50 µM. For the same molecule, the IC50 ([6]; read-out: CYP 2D6 IC50) was 12.7 µM.
With Cc1cccc(CNCC[C@@]2(c3ccc(F)cn3)CCO[C@]3(CCOC3)C2)c1 [Hydrochloride Salt of (+)-22] the CLint scaled [1] was 13.5 mL/min/kg, the IC50 [2] was > 50 µM and the IC50 [3] was > 50 µM. The EC50 [4] was > 30 µM, the Emax [4] was ~0% and the IC50 [5] was > 50 µM. It also gave an IC50 [6] of 19.3 µM.
For Fc1ccc([C@]2(CCNCc3cccc(F)c3)CCO[C@]3(CCOC3)C2)nc1 [Hydrochloride Salt of (+)-23], the CLint scaled [1] was 15.6 mL/min/kg, the IC50 [2] was > 50 µM and the IC50 [3] was > 50 µM. The EC50 [4, 7] was > 30 µM, the Emax [4] was ~0% and the IC50 [5] was > 50 µM. For the same molecule, the IC50 ([6]; read-out: CYP 2D6 IC50) was 17.8 µM.
With COc1ccsc1CNCC[C@@]1(c2ccccn2)CCOC2(CCCC2)C1 [compound 1, Oliceridine, reference compound] the CLint scaled [1] was 314 mL/min/kg, the IC50 [2] was > 50 µM and the Emax [4] was 4.5%. The IC50 [5] was > 50 µM and the IC50 [6] was 4.6 µM.
